According to US10632064B2, “Topical regional neuro affective therapy with cannabinoid combination products” (Afgin Pharma, LLC, priority 2015, dated 2020):
Several values for one entry are separate records, joined by “and”; a condition that tells them apart may be missing. Identical values can stand only once. Entries after “also recorded” stand apart in the source; their conditions may differ.

How the values were obtained:
[1] = system: human patient having a remote head injury, s/p 4 craniotomies and intractable seizures; assay: Example 7: topical cannabidiol 40 mg at the BONATH, intractable seizures, EEG; format: in vivo; conditions: cannabidiol 40 mg topical at BONATH
Method: The efficacy of a topical cannabidiol formulation was studied in a human patient having a remote head injury, s/p 4 craniotomies and intractable seizures. The patient was treated with cannabidiol 40 mg applied to the BONATH in a topical formulation. There was attenuation of associated focal EEG abnormalities.

[2] = system: patients having seizures, encephalopathy, and/or spasticity; assay: Example 8: topical CBD at the back of the neck (Table 2); format: in vivo, human
Method: In Example 8, 34 patients having seizures, encephalopathy, and/or spasticity were treated with topical CBD at the back of the neck. The treatment comprised a dose of either 15 mg or 30 mg cannabinoid drugs, with the majority being CBD, the source of the CBD being CBD oil commercially available from CannaVest.

[3] = system: patients having headaches and neck pain; assay: Example 9: topical CBD at the back of the neck (Table 3); format: in vivo, human
Method: In Example 9, 13 patients having headaches and neck pain were treated with topical CBD at the back of the neck. The treatment comprised a dose of either 15 mg or 30 mg cannabinoid drugs, with the majority being CBD, the source of the CBD being CBD oil commercially available from CannaVest.

[4] = system: patients having back/spine pain, fibromyalgia, and/or extremity pain; assay: Example 10: topical CBD (Table 4); format: in vivo, human
Method: In Example 10, 16 patients having back/spine pain, fibromyalgia, and/or extremity pain were treated with topical CBD at the back of the neck. The treatment comprised a dose of either 15 mg or 30 mg cannabinoid drugs, with the majority being CBD, the source of the CBD being CBD oil commercially available from CannaVest.

[5] = system: patients having Parkinson's disease, tremors, or movement disorders; assay: Example 11: topical CBD at the back of the neck (Table 5); format: in vivo, human
Method: In Example 11, 6 patients having Parkinson's disease, tremors, or movement disorders were treated with topical CBD at the back of the neck. The treatment comprised a dose of either 15 mg or 30 mg cannabinoid drugs, with the majority being CBD, the source of the CBD being CBD oil commercially available from CannaVest.

[6] = system: person, cerebellar posterior fossa cyst, generalized seizure; assay: Example 13: 2% CBD cream to the nuchal region, absence seizures, EEG; format: in vivo, human
Method: In Example 13, person suffering from a cerebellar posterior fossa cyst, generalized seizure manifesting as standing and staring and unresponsive was treating in accordance with the present invention. FIG. 2 is an EEG showing a baseline EEG of the patient of Example 13. […] Previously, ethosuximide had been recommended for treatment, but the parents were reluctant to have the patient on a systemic […] therapy in view of the potential side effects. The patient was treated with a 2% CBD cream to the nuchal (back of the neck) region twice a day. After two weeks, the dosage regimen was changed to one application per day.

[7] = system: patient with head injury and seizures; assay: Example 14: 1 g of 1.6% CBD cream nuchal twice a day, intractable complex partial seizures, EEG; format: in vivo, human
Method: They presented with seizures (intractable complex partial seizures with secondary generalization; episodes of encephalopathy for 24 hours thereafter). […] They had had 5 craniotomies, and previously had been treated with Dilantin, Carbatrol, Keppra, Lamictal, and Depakote. Their current medications were Vimpat and Onfi (clobazam).
The patient was treated with 1 g of 1.6% CBD cream to the nuchal (back of the neck) region twice a day. […] The patient remained on Vimpat, and their dose of Onfi was reduced by half.

[8] = system: patient with autism and generalized seizures; assay: Example 15: 1 g of 2% CBD cream nuchal, autism and generalized seizures, EEG; format: in vivo, human
Method: In Example 15, a patient presented with autism and generalized seizures. They were uncontrolled on Lamictal, Depakote, Keppra, Zonegran, ethosuximide/Zarontin. When examined, they presented with seizures about every 2 weeks on Banzel, Onfi, and Topamax as antiepileptics. FIG. 7 is a baseline EEG taken at the initial examination, showing seizure focus, showing generalized slowing and disorganization with left frontal sharp waves and paroxysms of sharp waves and spikes.
The patient was treated with 1 g of 2% CBD cream to the nuchal (back of the neck). […] They continued therapy with the topical CBD cream to the nuchal region twice daily, and the Topamax was tapered off, resulting in added overall improved encephalopathy.

[9] = system: patient with stroke and focal seizures; assay: Example 16: 1 g of 1.6% CBD cream nuchal, stroke and focal seizures, EEG; format: in vivo, human
Method: In Example 16, a patient presented with stroke and focal seizures. […]. FIG. 9 is a baseline EEG taken at the initial examination, showing left fronto-central seizure focus.
The patient was treated with 1 g of 1.6% CBD cream to the nuchal (back of the neck). […] They were able to return to work as a beterinarian and do surgery, which was unexpected as their Rehab MD had previously advised them that we would have to retire.

[10] = system: patient with atonic seizures; assay: Example 17: 1 g of 1.6% CBD cream nuchal, atonic seizures, EEG; format: in vivo, human
Method: In Example 17, a patient presented with atonic seizures. The patient would suddenly freeze and fall down (e.g., riding a bike, at school, etc.). FIG. 11 is a baseline EEG taken at the initial examination, showing cortical irritability on the left central region c/w potential for seizures.
The patient was treated with 1 g of 1.6% CBD cream to the nuchal (back of the neck). […] FIG. 13 is a brain MRI of the patient showing a left thalamic hamartoma, a benign developmental process, likely irritating the brain and causing their seizures.

[11] = system: patients having a variety of conditions; assay: Example 18: topical CBD cream compounded from crystalline powder (Table 7); format: in vivo, human; conditions: 1% topical CBD; single patients
Method: The CBD was compounded in crystalline powder form rather than in CBD-oil form into the topical cream. The doses were 7.5 mg (0.75% topical CBD cream), 10 mg (1% topical CBD cream), 15 mg (1.5% topical CBD cream) or 20 mg (2% topical CBD cream).

[12] = system: acute paranoid schizophrenia; conditions: cited from earlier work
[13] = 15 mg or 30 mg cannabinoid drugs (CBD oil) topical, one patient per entry
[14] = after topical CBD, single patients
[15] = twice a day CBD treatment to the nuchal region

C=C(C)[C@@H]1CCC(C)=C[C@H]1c1c(O)cc(CCCCC)cc1O [CBD, cannabidiol]
EEG post-treatment [1]: the right fast activity and sharp waves were attenuated
time after topical CBD at which the effect was seen ([2]; 15 mg or 30 mg, back of neck, single patients): 15 minutes after application of topical CBD and 10 minutes after topical CBD to back of and state within 10 minutes. and ≤ 15 minutes and 3 minutes after topical CBD application, and 30 minutes after topical CBD to back of
seizure frequency reduced ([2]; after 2 months use, person with Aicardi syndrome, intractable seizures): reduced 60%. Prior doses of Lamicatal and
spasticity decrease/improvement ([2]; after one application/treatment of topical CBD to back of neck, single patients): 80% and Severe baseline spasticity improved 70% and spasticity by 30% from baseline. and 30% reduction in spasticity in all 4
duration of effect ([2]; person s/p head injury, topical CBD to back of neck): lasted 8 hours. Now on 3×/day.
result after topical CBD, in words (Table 3) [3, 13]: improved mobility and After week of daily use, headache free and calm, less anxious, and breathing easier. and Headache and neck pain resolved and Chronic daily headaches resolved after daily and Neck pain resolved and 2×/day with benefit for past 2 months. Injury and the neck, pain resolve and ROM improved and chronic headache and improved range and Pain resolved after several and All pain symptoms resolved after 3 weeks of
right facial weakness and decreased sensation improved ([3]; Bell's palsy, CBD to back of neck and region of stylomastoid foramen): 30%
pain (headache, neck, TMJ, back, thoracic) reduction [3, 14]: 50% and diminished 50% for the first time. Prescribed and Chronic back pain improved 30% and Thoracic pain reduced 30% within and Headaches and neck pain improved 30% with
ROM of neck improved ([3]; person, 5 minutes after topical CBD to the neck): 80%. Will continue to use daily.
time after topical CBD at which the effect was seen ([3]; single patients): 5 minutes after topical CBD to back of neck, and 5-10 minutes and 5 minutes after topical CBD application to and ≤ 15 minutes and within 15 minutes after topical CBD and ≤ 10 minutes of topical CBD
result after topical CBD, in words (Table 4) [4, 13]: Right hand symptoms improved after topical; also recorded: improved strength; also recorded: relief better than Tramadol; also recorded: improved mobility and back pain relief; also recorded: back of neck and back 3×/day; pain relief
pain reduction/relief [4, 14]: pain diminished 40% with improved and 30-40% and 30% (2×) and 50% and 60% reduction in chronic pain within a few
left lower extremity pain after topical CBD ([4]; person, before 6 of 10, after 10 minutes): 2 /10
time after topical CBD at which the effect was seen ([4]; single patients): 5 minutes (2×) and 10 minutes and within 10 minutes. and Within 15 minutes of topical CBD application and ≤ 15 minutes and ≤ 10 minutes and within 2 minutes of application.
result after topical CBD, in words (Table 5) ([5]; 15 mg or 30 mg cannabinoid drugs (CBD oil) at back of neck, one patient per entry): resolved festination/small steppage; also recorded: Facial twitching improved after
time after topical CBD at which the effect was seen ([5]; single patients): 15 minutes after one application and 10 minutes and 10 minutes after topical CBD appli- and 5 minutes; now using 3×/ day.
clinical findings at the two week check-up ([6]; 2% CBD cream to nuchal region twice a day): No seizures were noted; also recorded: no long bed wetting; also recorded: reading levels had increased two levels
EEG post-treatment ([6]; 5 minutes after the start of therapy (FIG. 3)): attenuated seizure focus
EEG post-treatment ([6]; 8 minutes after the start of therapy (FIG. 4)): further attenuation of seizure focus
seizure status on treatment ([7]; 16 mg nuchal topical CBD twice daily with Vimpat and Onfi, one year follow-up and 20 months): the patient was seizure-free; also recorded: remained seizure-free since June 2014
follow-up EEG post-treatment ([7]; one year follow-up (FIG. 6)): right fast activity and sharp waves attenuated; also recorded: no longer showing seizure potential
clinical result ([8]; 2% CBD cream nuchal, continued twice daily): more alert and interactive; also recorded: Seizure frequency also was reduced
EEG after CBD application ([8]; within one minute of application of 1 g of 2% CBD cream (FIG. 8)): improvement in the EEG background without previous burst activity; also recorded: right fast activity and sharp waves attenuated
EEG after CBD dose ([9]; 10 minutes after application of 1 g of 1.6% CBD cream (FIG. 10)): attenuated seizure focus
clinical result [9, 15]: remains seizure free; also recorded: helping their spastic weakness from the stroke
time seizure free after initiation of treatment [9, 15]: about 9 months
EEG after CBD dose ([10]; 10 minutes after application of 1 g of 1.6% CBD cream (FIG. 12)): attenuated seizure focus
seizure status on treatment ([10]; topical CBD nuchal since October 2015, only medication): seizure-free since initiating topical CBD therapy
pain decrease [11]: 50%
psychotic symptoms ([12]; after 2 weeks): significant decrease in psychotic symptoms
side effects ([12]; compared with amisulpride): significantly fewer side effects
